In PMC12047801, “Disrupting the OTUD4-USP7 deubiquitinase complex to suppress herpesvirus replication: a novel antiviral strategy” (PLOS Pathogens, 2025):

System: KSHV genome replication in BCBL-1 cells
Experiment: Relative viral genomic copy number (latency) by qPCR in BCBL-1 cells
Assay type: cell-based
Conditions: Fig. S1F, 100 μM, 48 h

Ac-YGRKKRRQRRRGGVNQSASQSSN-NH2 [p8]
Relative viral genomic copy number (replicate 1): 1.16
Relative viral genomic copy number (replicate 2): 1.11
Relative viral genomic copy number (replicate 3): 0.96
